Measured values taken from patent US11254663B2 (BRISTOL-MYERS SQUIBB COMPANY, priority 2019, dated 2022).
pEC50: −log10 of the molar value.

Each compound was assayed against FXR (Homo sapiens (Human), UniProt Q96RI1) (assay: FXR EC50 (FXR agonist potency reported with each Example)).
Type: cell-based

Chain of FXR (Q96RI1 262-486): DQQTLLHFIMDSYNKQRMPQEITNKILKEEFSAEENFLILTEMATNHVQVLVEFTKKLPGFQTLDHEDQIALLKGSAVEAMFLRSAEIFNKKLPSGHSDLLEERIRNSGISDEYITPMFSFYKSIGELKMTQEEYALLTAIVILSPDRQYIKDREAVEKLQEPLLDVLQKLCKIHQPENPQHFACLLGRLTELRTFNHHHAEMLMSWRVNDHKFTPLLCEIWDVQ

Question: With `O=C(C1CCC(F)(F)C1)N(CC12CCC(c3nc(C4CC4)no3)(CC1)CC2)c1cccc(-c2nc(C(F)F)co2)c1` (stereo not drawn) [Example 44, N-((4-(3-cyclopropyl-1,2,4-oxadiazol-5-yl)bicyclo[2.2.2]octan-1-yl)methyl)-N-(3-(4-(difluoromethyl)oxazol-2-yl)phenyl)-3,3-difluorocyclopentane-1-carboxamide] as the compound, how does the pEC50 read?
Answer: 6.19

Question: How did the pEC50 turn out when `CCOc1ccnc(-c2cccc(N(CC34CCC(c5nc(C6CC6)no5)(CC3)CC4)C(=O)C34CC(F)(C3)C4)c2)c1` [Example 225, N-((4-(3-cyclopropyl-1,2,4-oxadiazol-5-yl)bicyclo[2.2.2]octan-1-yl)methyl)-N-(3-(4-ethoxypyridin-2-yl)phenyl)-3-fluorobicyclo[1.1.1]pentane-1-carboxamide] was run?
Answer: 6.62

Question: With `CC1(c2nc(-c3cccc(N(CC45CCC(c6nc(C7CC7)no6)(CC4)CC5)C(=O)C45CC(F)(C4)C5)c3)no2)COC1` [Example 113, N-((4-(3-cyclopropyl-1,2,4-oxadiazol-5-yl)bicyclo[2.2.2]octan-1-yl)methyl)-3-fluoro-N-(3-(5-(3-methyloxetan-3-yl)-1,2,4-oxadiazol-3-yl)phenyl)bicyclo[1.1.1]pentane-1-carboxamide] as the compound, how does the pEC50 read?
Answer: 6.92

Question: `CCOc1cc(-c2cccc(N(CC34CCC(c5nc(C6CC6)no5)(CC3)CC4)C(=O)C34CC(F)(C3)C4)c2)ccn1` [Example 226, N-((4-(3-cyclopropyl-1,2,4-oxadiazol-5-yl)bicyclo[2.2.2]octan-1-yl)methyl)-N-(3-(2-ethoxypyridin-4-yl)phenyl)-3-fluorobicyclo[1.1.1]pentane-1-carboxamide] was tested. Which pEC50 did it give?
Answer: 6.66

Question: How did the pEC50 turn out when `CCOC(=O)c1coc(-c2cccc(N(CC34CCC(c5nc(C)no5)(CC3)CC4)C(=O)C34CC(F)(C3)C4)c2)n1` [Example 12, Ethyl 2-(3-(3-fluoro-N-((4-(3-methyl-1,2,4-oxadiazol-5-yl)bicyclo[2.2.2]octan-1-yl)methyl)bicyclo[1.1.1]pentane-1-carboxamido)phenyl)oxazole-4-carboxylate] was run?
Answer: 5.77

Question: How did the pEC50 turn out when `O=C(N(CC12CCC(c3nc(C4CC4)no3)(CC1)OC2)c1cccc(-c2nc(C3CC3)no2)c1)C12CC(F)(C1)C2` [Example 196, N-((1-(3-cyclopropyl-1,2,4-oxadiazol-5-yl)-2-oxabicyclo[2.2.2]octan-4-yl)methyl)-N-(3-(3-cyclopropyl-1,2,4-oxadiazol-5-yl)phenyl)-3-fluorobicyclo[1.1.1]pentane-1-carboxamide] was run?
Answer: 6.69

Question: How did the pEC50 turn out when `CCCc1ncc(-c2cccc(N(CC34CCC(c5nc(C6CC6)no5)(CC3)CC4)C(=O)C3CC(F)(F)C3)c2)o1` [Example 27, N-((4-(3-cyclopropyl-1,2,4-oxadiazol-5-yl)bicyclo[2.2.2]octan-1-yl)methyl)-3,3-difluoro-N-(3-(2-propyloxazol-5-yl)phenyl)cyclobutane-1-carboxamide] was run?
Answer: 6.83

Question: With `O=C(N(CC12CCC(c3nc(C4CC4)no3)(CC1)OC2)c1cccc(-c2noc(C(F)F)n2)c1)C12CC(F)(C1)C2` [Example 204, N-((1-(3-cyclopropyl-1,2,4-oxadiazol-5-yl)-2-oxabicyclo[2.2.2]octan-4-yl)methyl)-N-(3-(5-(difluoromethyl)-1,2,4-oxadiazol-3-yl)phenyl)-3-fluorobicyclo[1.1.1]pentane-1-carboxamide] as the compound, how does the pEC50 read?
Answer: 6.43

Question: How did the pEC50 turn out when `CC(C)(C)c1noc(C23CCC(CN(C(=O)C4CN(C(=O)C(F)(F)F)C4)c4cccc(-c5nc(C6CC6)no5)c4)(CC2)CC3)n1` [Example 193, N-((4-(3-(tert-butyl)-1,2,4-oxadiazol-5-yl)bicyclo[2.2.2]octan-1-yl)methyl)-N-(3-(3-cyclopropyl-1,2,4-oxadiazol-5-yl)phenyl)-1-(2,2,2-trifluoroacetyl)azetidine-3-carboxamide] was run?
Answer: 5.31

Question: `CC(N(C(=O)C12CC(F)(C1)C2)c1cccc(-c2nc(C3CC3)no2)c1)C12CCC(c3nc(C4CC4)no3)(CC1)CC2` (single isomer, unassigned) [Example 217, N-(1-(4-(3-cyclopropyl-1,2,4-oxadiazol-5-yl)bicyclo[2.2.2]octan-1-yl)ethyl)-N-(3-(3-cyclopropyl-1,2,4-oxadiazol-5-yl)phenyl)-3-fluorobicyclo[1.1.1]pentane-1-carboxamide] was tested. Which pEC50 did it give?
Answer: 5.84

Question: How did the pEC50 turn out when `CC(C)(C)CNC(=O)N(CC12CCC(c3nc(C4CC4)no3)(CC1)CC2)c1cccc(-c2nc(C3CC3)no2)c1` [Example 92, 1-((4-(3-cyclopropyl-1,2,4-oxadiazol-5-yl)bicyclo[2.2.2]octan-1-yl)methyl)-1-(3-(3-cyclopropyl-1,2,4-oxadiazol-5-yl)phenyl)-3-neopentylurea] was run?
Answer: 6.38

Question: How did the pEC50 turn out when `CO[C@H]1C[C@@H](C(=O)N(CC23CCC(c4nc(C(C)(C)C)no4)(CC2)CC3)c2cccc(-c3nc(C4CC4)no3)c2)C1` [Example 192, (1S,3S)—N-((4-(3-(tert-butyl)-1,2,4-oxadiazol-5-yl)bicyclo[2.2.2]octan-1-yl)methyl)-N-(3-(3-cyclopropyl-1,2,4-oxadiazol-5-yl)phenyl)-3-methoxycyclobutane-1-carboxamide] was run?
Answer: 6.35

Question: With `CC(C)(C)c1nc(C23CCC(CN(C(=O)C45CC(F)(C4)C5)c4cc(-c5nc(C6CC6)no5)ccn4)(CC2)CC3)no1` [Example 210, N-((4-(5-(tert-butyl)-1,2,4-oxadiazol-3-yl)bicyclo[2.2.2]octan-1-yl)methyl)-N-(4-(3-cyclopropyl-1,2,4-oxadiazol-5-yl)pyridin-2-yl)-3-fluorobicyclo[1.1.1]pentane-1-carboxamide] as the compound, how does the pEC50 read?
Answer: 7.32

Question: How did the pEC50 turn out when `CC(C)(C)c1noc(C23CCC(CN(C(=O)C45CC(F)(C4)C5)c4cccc(-c5cnn(S(=O)(=O)C6CC6)c5)c4)(CC2)OC3)n1` [Example 208, N-((4-(3-(tert-butyl)-1,2,4-oxadiazol-5-yl)-2-oxabicyclo[2.2.2]octan-1-yl)methyl)-N-(3-(1-(cyclopropylsulfonyl)-1H-pyrazol-4-yl)phenyl)-3-fluorobicyclo[1.1.1]pentane-1-carboxamide] was run?
Answer: 6.21

Question: `O=C(C1CC(F)(F)C1)N(CC12CCC(c3nc(C4CC4)no3)(CC1)CC2)c1cccc(-c2nc(C(F)F)co2)c1` [Example 41, N-((4-(3-cyclopropyl-1,2,4-oxadiazol-5-yl)bicyclo[2.2.2]octan-1-yl)methyl)-N-(3-(4-(difluoromethyl)oxazol-2-yl)phenyl)-3,3-difluorocyclobutane-1-carboxamide] was tested. Which pEC50 did it give?
Answer: 6.33

Question: How did the pEC50 turn out when `O=C(C1CC(F)(F)C1)N(CC12CCC(c3nc(C4CC4)co3)(CC1)CC2)c1cccc(-c2cnc(C3CC3)o2)c1` [Example 83, N-((4-(4-cyclopropyloxazol-2-yl)bicyclo[2.2.2]octan-1-yl)methyl)-N-(3-(2-cyclopropyloxazol-5-yl)phenyl)-3,3-difluorocyclobutane-1-carboxamide] was run?
Answer: 6.23

Question: With `O=C([C@H]1C[C@](O)(C(F)(F)F)C1)N(CC12CCC(c3nc(C4CC4)no3)(CC1)CC2)c1cccc(-c2nc(C3CC3)no2)c1` [Example 9, (1s, 3s)-N-((4-(3-cyclopropyl-1,2,4-oxadiazol-5-yl)bicyclo[2.2.2]octan-1-yl)methyl)-N-(3-(3-cyclopropyl-1,2,4-oxadiazol-5-yl)phenyl)-3-hydroxy-3-(trifluoromethyl)cyclobutane-1-carboxamide] as the compound, how does the pEC50 read?
Answer: 6.82

Question: How did the pEC50 turn out when `Cc1cc(C23CCC(CN(C(=O)C45CC(F)(C4)C5)c4cccc(-c5nc(C6CC6)no5)c4)(CC2)CC3)ccn1` [Example 32, N-(3-(3-cyclopropyl-1,2,4-oxadiazol-5-yl)phenyl)-3-fluoro-N-((4-(2-methylpyridin-4-yl)bicyclo[2.2.2]octan-1-yl)methyl)bicyclo[1.1.1]pentane-1-carboxamide] was run?
Answer: 6.12

Question: How did the pEC50 turn out when `COCc1nc(-c2cccc(N(CC34CCC(c5nc(C6CC6)no5)(CC3)CC4)C(=O)C34CC(F)(C3)C4)c2)cs1` [Example 72, N-((4-(3-cyclopropyl-1,2,4-oxadiazol-5-yl)bicyclo[2.2.2]octan-1-yl)methyl)-3-fluoro-N-(3-(2-(methoxymethyl)thiazol-4-yl)phenyl)bicyclo[1.1.1]pentane-1-carboxamide] was run?
Answer: 6.78

Question: With `Cn1c(-c2cccc(N(CC34CCC(c5nc(C6CC6)no5)(CC3)CC4)C(=O)C34CC(F)(C3)C4)c2)nnc1C1CC1` [Example 132, N-((4-(3-cyclopropyl-1,2,4-oxadiazol-5-yl)bicyclo[2.2.2]octan-1-yl)methyl)-N-(3-(5-cyclopropyl-4-methyl-4H-1,2,4-triazol-3-yl)phenyl)-3-fluorobicyclo[1.1.1]pentane-1-carboxamide] as the compound, how does the pEC50 read?
Answer: 5.36

Question: `O=C(N(CC12CCC(c3nc(C4CC4)no3)(CC1)CC2)c1cccc(-c2ccn(C3COC3)n2)c1)C12CC(F)(C1)C2` [Example 149, N-((4-(3-cyclopropyl-1,2,4-oxadiazol-5-yl)bicyclo[2.2.2]octan-1-yl)methyl)-3-fluoro-N-(3-(1-(oxetan-3-yl)-1H-pyrazol-3-yl)phenyl)bicyclo[1.1.1]pentane-1-carboxamide] was tested. Which pEC50 did it give?
Answer: 6.95

Question: With `O=C(N(CC12CCC(c3nc(C4CCOCC4)no3)(CC1)CC2)c1cccc(-c2nc(C3CC3)no2)c1)C12CC(F)(C1)C2` [Example 90, N-(3-(3-cyclopropyl-1,2,4-oxadiazol-5-yl)phenyl)-3-fluoro-N-((4-(3-(tetrahydro-2H-pyran-4-yl)-1,2,4-oxadiazol-5-yl)bicyclo[2.2.2]octan-1-yl)methyl)bicyclo[1.1.1]pentane-1-carboxamide] as the compound, how does the pEC50 read?
Answer: 6.92

Question: `CC(F)(F)c1nc(C23CCC(CN(C(=O)C45CC(F)(C4)C5)c4cccc(-c5nc(C6CC6)no5)c4)(CC2)CC3)no1` [Example 121, N-(3-(3-cyclopropyl-1,2,4-oxadiazol-5-yl)phenyl)-N-((4-(5-(1,1-difluoroethyl)-1,2,4-oxadiazol-3-yl)bicyclo[2.2.2]octan-1-yl)methyl)-3-fluorobicyclo[1.1.1]pentane-1-carboxamide] was tested. Which pEC50 did it give?
Answer: 7.66

Question: With `CCc1noc(-c2cccc(N(CC34CCC(c5ccc(C(C)(C)C#N)cc5)(CC3)OC4)C(=O)C3CCC3)c2)n1` [Example 48, N-((1-(4-(2-cyanopropan-2-yl)phenyl)-2-oxabicyclo[2.2.2]octan-4-yl)methyl)-N-(3-(3-ethyl-1,2,4-oxadiazol-5-yl)phenyl)cyclobutanecarboxamide] as the compound, how does the pEC50 read?
Answer: 6.52
